Assay results as given in PubChem BioAssay (NCI).
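Dose response: 5 concentrations. Exposure: 48 h. Format: 96-well plates. Endpoint: linear interpolation; highest concentration if not reached. At the TGI there is no net growth.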

Tests used:
Experiment in all cases: NCI tumour cell line growth inhibition, 48 h
786-0 renal = tested on: 786-0 renal
A549 NSCLC = tested on: A549 NSCLC
ACHN renal = tested on: ACHN renal
CCRF-CEM leukemia = tested on: CCRF-CEM leukemia
COLO 205 colon = tested on: COLO 205 colon
DLD-1 colon = tested on: DLD-1 colon
DMS 114 small cell lung = tested on: DMS 114 small cell lung
DMS 273 small cell lung = tested on: DMS 273 small cell lung
EKVX NSCLC = tested on: EKVX NSCLC
HCT-116 colon = tested on: HCT-116 colon
HCT-15 colon = tested on: HCT-15 colon
HL-60(TB) leukemia = tested on: HL-60(TB) leukemia
HOP-18 NSCLC = tested on: HOP-18 NSCLC
HOP-62 NSCLC = tested on: HOP-62 NSCLC
IGROV1 ovarian = tested on: IGROV1 ovarian
K-562 leukemia = tested on: K-562 leukemia
KM12 colon = tested on: KM12 colon
LOX IMVI melanoma = tested on: LOX IMVI melanoma
M14 melanoma = tested on: M14 melanoma
M19-MEL melanoma = tested on: M19-MEL melanoma
MALME-3M melanoma = tested on: MALME-3M melanoma
MOLT-4 leukemia = tested on: MOLT-4 leukemia
NCI-H226 lung = tested on: NCI-H226 lung
NCI-H23 lung = tested on: NCI-H23 lung
NCI-H460 lung = tested on: NCI-H460 lung
NCI-H522 lung = tested on: NCI-H522 lung
OVCAR-3 ovarian = tested on: OVCAR-3 ovarian
OVCAR-8 ovarian = tested on: OVCAR-8 ovarian
RPMI-8226 leukemia = tested on: RPMI-8226 leukemia
RXF 393 renal = tested on: RXF 393 renal
SF-295 CNS = tested on: SF-295 CNS
SF-539 CNS = tested on: SF-539 CNS
SK-MEL-2 melanoma = tested on: SK-MEL-2 melanoma
SK-MEL-28 melanoma = tested on: SK-MEL-28 melanoma
SK-MEL-5 melanoma = tested on: SK-MEL-5 melanoma
SK-OV-3 ovarian = tested on: SK-OV-3 ovarian
SN12C renal = tested on: SN12C renal
SNB-19 CNS = tested on: SNB-19 CNS
SW-620 colon = tested on: SW-620 colon
TK-10 renal = tested on: TK-10 renal
U251 CNS = tested on: U251 CNS
UACC-257 melanoma = tested on: UACC-257 melanoma
UACC-62 melanoma = tested on: UACC-62 melanoma
UO-31 renal = tested on: UO-31 renal
XF 498 CNS = tested on: XF 498 CNS
CAKI-1 renal = tested on: CAKI-1 renal
HCC-2998 colon = tested on: HCC-2998 colon
HT29 colon = tested on: HT29 colon
KM20L2 colon = tested on: KM20L2 colon
LXFL 529 NSCLC = tested on: LXFL 529 NSCLC
OVCAR-4 ovarian = tested on: OVCAR-4 ovarian
OVCAR-5 ovarian = tested on: OVCAR-5 ovarian
SF-268 CNS = tested on: SF-268 CNS
SNB-75 CNS = tested on: SNB-75 CNS
SNB-78 CNS = tested on: SNB-78 CNS
A498 renal = tested on: A498 renal
HOP-92 NSCLC = tested on: HOP-92 NSCLC

O=c1ccc2ccc(O)c3c4c(=O)ccc5ccc(O)c(c1c23)c54
TGI (786-0 renal): 4.81 µM
TGI (A549 NSCLC): 12.2 µM
TGI (ACHN renal): 6.75 µM
TGI (CCRF-CEM leukemia): 3.77 µM
TGI (COLO 205 colon): 3.73 µM
TGI (DLD-1 colon): 3.13 µM
TGI (DMS 114 small cell lung): 3.63 µM
TGI (DMS 273 small cell lung): 3.97 µM
TGI (EKVX NSCLC): 8.46 µM
TGI (HCT-116 colon): 2.83 µM
TGI (HCT-15 colon): 2.69 µM
TGI (HL-60(TB) leukemia): 3.64 µM
TGI (HOP-18 NSCLC): 3.72 µM
TGI (HOP-62 NSCLC): 4.86 µM
TGI (IGROV1 ovarian): 3.64 µM
TGI (K-562 leukemia): 5.59 µM
TGI (KM12 colon): 3.43 µM
TGI (LOX IMVI melanoma): 2.63 µM
TGI (M14 melanoma): 3.22 µM
TGI (M19-MEL melanoma): 2.16 µM
TGI (MALME-3M melanoma): 1.83 µM
TGI (MOLT-4 leukemia): 8.53 µM
TGI (NCI-H226 lung): 5.28 µM
TGI (NCI-H23 lung): 3.46 µM
TGI (NCI-H460 lung): 11.6 µM
TGI (NCI-H522 lung): 3.08 µM
TGI (OVCAR-3 ovarian): 11.7 µM
TGI (OVCAR-8 ovarian): 10.7 µM
TGI (RPMI-8226 leukemia): 9.12 µM
TGI (RXF 393 renal): 2.42 µM
TGI (SF-295 CNS): 9.29 µM
TGI (SF-539 CNS): 3.2 µM
TGI (SK-MEL-2 melanoma): 3.34 µM
TGI (SK-MEL-28 melanoma): 5.28 µM
TGI (SK-MEL-5 melanoma): 2.59 µM
TGI (SK-OV-3 ovarian): 8.61 µM
TGI (SN12C renal): 4.37 µM
TGI (SNB-19 CNS): 4.85 µM
TGI (SW-620 colon): 5.08 µM
TGI (TK-10 renal): 5.86 µM
TGI (U251 CNS): 3.3 µM
TGI (UACC-257 melanoma): 6.71 µM
TGI (UACC-62 melanoma): 1.65 µM
TGI (UO-31 renal): 3.71 µM
TGI (XF 498 CNS): 3.27 µM

COC(=O)/C(C#N)=C1\CCC(Nc2cccc(C(F)(F)F)c2)N1C (stereo unspecified)
TGI (786-0 renal): > 100 µM
TGI (A549 NSCLC): > 100 µM
TGI (ACHN renal): > 100 µM
TGI (CAKI-1 renal): > 100 µM
TGI (CCRF-CEM leukemia): > 100 µM
TGI (DLD-1 colon): > 100 µM
TGI (EKVX NSCLC): > 100 µM
TGI (HCC-2998 colon): > 100 µM
TGI (HCT-116 colon): > 100 µM
TGI (HL-60(TB) leukemia): > 100 µM
TGI (HOP-18 NSCLC): > 100 µM
TGI (HOP-62 NSCLC): > 100 µM
TGI (HT29 colon): > 100 µM
TGI (IGROV1 ovarian): > 100 µM
TGI (K-562 leukemia): > 100 µM
TGI (KM12 colon): > 100 µM
TGI (KM20L2 colon): > 100 µM
TGI (LOX IMVI melanoma): > 100 µM
TGI (LXFL 529 NSCLC): > 100 µM
TGI (M14 melanoma): > 100 µM
TGI (MALME-3M melanoma): > 100 µM
TGI (MOLT-4 leukemia): > 100 µM
TGI (NCI-H226 lung): > 100 µM
TGI (NCI-H23 lung): > 100 µM
TGI (NCI-H460 lung): > 100 µM
TGI (NCI-H522 lung): > 100 µM
TGI (OVCAR-3 ovarian): > 100 µM
TGI (OVCAR-4 ovarian): > 100 µM
TGI (OVCAR-5 ovarian): > 100 µM
TGI (OVCAR-8 ovarian): > 100 µM
TGI (RPMI-8226 leukemia): > 100 µM
TGI (RXF 393 renal): > 100 µM
TGI (SF-268 CNS): > 100 µM
TGI (SF-295 CNS): > 100 µM
TGI (SF-539 CNS): > 100 µM
TGI (SK-MEL-2 melanoma): > 100 µM
TGI (SK-MEL-28 melanoma): > 100 µM
TGI (SK-OV-3 ovarian): > 100 µM
TGI (SN12C renal): > 100 µM
TGI (SNB-19 CNS): > 100 µM
TGI (SNB-75 CNS): > 100 µM
TGI (SNB-78 CNS): > 100 µM
TGI (SW-620 colon): > 100 µM
TGI (TK-10 renal): > 100 µM
TGI (U251 CNS): > 100 µM
TGI (UACC-257 melanoma): > 100 µM
TGI (UACC-62 melanoma): > 100 µM
TGI (UO-31 renal): > 100 µM
TGI (XF 498 CNS): > 100 µM

C[C@H](NS(=O)(=O)c1ccc(NC(=O)c2ccccc2)cc1)C(=O)O
TGI (786-0 renal): > 100 µM
TGI (A498 renal): > 100 µM
TGI (A549 NSCLC): > 100 µM
TGI (ACHN renal): > 100 µM
TGI (CAKI-1 renal): > 100 µM
TGI (CCRF-CEM leukemia): > 100 µM
TGI (COLO 205 colon): > 100 µM
TGI (DLD-1 colon): > 100 µM
TGI (DMS 273 small cell lung): > 100 µM
TGI (EKVX NSCLC): > 100 µM
TGI (HCC-2998 colon): > 100 µM
TGI (HCT-15 colon): > 100 µM
TGI (HL-60(TB) leukemia): > 100 µM
TGI (HOP-18 NSCLC): > 100 µM
TGI (HOP-92 NSCLC): > 100 µM
TGI (HT29 colon): > 100 µM
TGI (IGROV1 ovarian): > 100 µM
TGI (K-562 leukemia): > 100 µM
TGI (KM12 colon): > 100 µM
TGI (KM20L2 colon): > 100 µM
TGI (LOX IMVI melanoma): > 100 µM
TGI (LXFL 529 NSCLC): > 100 µM
TGI (M14 melanoma): > 100 µM
TGI (M19-MEL melanoma): > 100 µM
TGI (MALME-3M melanoma): > 100 µM
TGI (MOLT-4 leukemia): > 100 µM
TGI (NCI-H23 lung): > 100 µM
TGI (NCI-H460 lung): > 100 µM
TGI (NCI-H522 lung): > 100 µM
TGI (OVCAR-3 ovarian): > 100 µM
TGI (OVCAR-4 ovarian): > 100 µM
TGI (OVCAR-5 ovarian): > 100 µM
TGI (OVCAR-8 ovarian): > 100 µM
TGI (RPMI-8226 leukemia): > 100 µM
TGI (RXF 393 renal): > 100 µM
TGI (SF-268 CNS): > 100 µM
TGI (SF-295 CNS): > 100 µM
TGI (SF-539 CNS): > 100 µM
TGI (SK-MEL-2 melanoma): > 100 µM
TGI (SK-MEL-28 melanoma): > 100 µM
TGI (SK-MEL-5 melanoma): > 100 µM
TGI (SK-OV-3 ovarian): > 100 µM
TGI (SN12C renal): > 100 µM
TGI (SNB-19 CNS): > 100 µM
TGI (SNB-75 CNS): > 100 µM
TGI (SW-620 colon): > 100 µM
TGI (TK-10 renal): > 100 µM
TGI (U251 CNS): > 100 µM
TGI (UACC-257 melanoma): > 100 µM
TGI (UACC-62 melanoma): > 100 µM
TGI (UO-31 renal): > 100 µM
TGI (XF 498 CNS): > 100 µM
